This assay has as its target Mu-type opioid receptor (Homo sapiens, UniProt P35372). In words: Inhibition of [3H]- diprenorphine binding on Opioid receptor mu 1 expressed in human embryonic kidney (HEK) cells. In kind it is cell-based.

Mu-type opioid receptor, sequence (P35372 whole entry): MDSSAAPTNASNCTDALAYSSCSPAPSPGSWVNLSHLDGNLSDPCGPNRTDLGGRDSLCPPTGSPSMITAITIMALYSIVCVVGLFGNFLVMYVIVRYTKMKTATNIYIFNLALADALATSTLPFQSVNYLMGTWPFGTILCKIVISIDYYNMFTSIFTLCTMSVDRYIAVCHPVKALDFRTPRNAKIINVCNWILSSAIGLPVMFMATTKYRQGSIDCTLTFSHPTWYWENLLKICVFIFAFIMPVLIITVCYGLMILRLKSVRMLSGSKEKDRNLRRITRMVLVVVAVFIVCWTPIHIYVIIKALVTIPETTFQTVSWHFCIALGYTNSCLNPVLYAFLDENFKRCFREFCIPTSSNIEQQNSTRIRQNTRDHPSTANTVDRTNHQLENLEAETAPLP

Compound `O=Cc1cc2ccc(C(=O)N[C@@H]3CC[C@@]4(O)C5Cc6ccc(O)c7c6[C@@]4(CCN5CC4CC4)[C@H]3O7)cc2cc1C=O` came in with a Ki of 0.744 nM.

What is called Ki is a measure of affinity in units of concentration, obtained from inhibition or displacement.

Values taken from ChEMBL document CHEMBL1135490, “Naphthalene dicarboxaldehyde as an electrophilic fluorogenic moiety for affinity labeling: application to opioid receptor affinity labels with greatly improved fluorogenic properties” (J Med Chem, 2002).
